Tested on: genes involved in longevity (Array 1)
Assay: Custom RT-PCR microarray (Array 1) gene expression in skin fibroblasts, UVB/UVA1
Type: cell-based, human
Settings: for RTC gene expression fold change / PPC gene expression fold change: control well
Experimental: Seeding of cells: On Day 1, each cell culture was seeded into 6 well cluster dishes at ˜1.5×10^5 cells in 4 mls medium per well. Three wells were seeded per test condition or control.
Experimental phase: On Day 3, wells were washed 1× with 2 mls medium, fed back 2 mls medium without fetal bovine serum and preincubated for 30-60 minutes before challenge with test or control conditions. After the preincubation, medium was aspirated from the wells and 2.5 mls of test or control condition in medium with 1% fetal bovine serum was pipetted into the appropriate wells.
(3) UVA1, UVB exposed and unexposed cells without test condition were used as controls. The experimental phase ended at 24 hours post UV exposure. Cells from each test and control parameter were then prepped for RNA isolation as described below.
UVB/UVA1 exposure: Cells exposed to UV received 200 mJ/cm^2 UVB/1 MED UVA1 using Thermo Oriel solar simulator model SP66923-3056. Cells were exposed from the bottom of the culture dish. The UV dose delivered to the cells was adjusted for interference from the plastic in the culture dish.
Preparation of RNA: The RNA was isolated using the Qiagen RNEasy Plus Mini Kit according to the manufacturer's protocol which can be found on the World Wilde Web at qiagen.com/literature/Defaultaspx?Term=&Language=EN&LiteratureType=4& ProductCategory=10162. The RNA was quantified and examined for purity using the 260/280 nm read method in a μ Quant spectrophotometer before use in the array.
Creation and Performance of a Custom Microarray (“Array 1”): Through the Custom Array design service of Superarray Bioscience Corporation, a 96 well RT-PCR microarray (“Array 1”) was developed to illustrate genetic responses in cells treated as above for specific genes involved in longevity as well as the relevant quality controls. The array was performed in compliance with manufacturer's guidelines and by recommended manufacturer's protocol as can be found on the World Wilde Web at superarray.com/Manual/perarrayplate.pdf
Custom Microarray Results: The results from the microarrays were determined using the delta CT method which uses comparisons of control genes and threshold cycles of genes of interest to generate relative expression values. The full set of experimental conditions was cross referenced and the data is provided herewith in DATA TABLE 3.
Preparation of RNA: The RNA was isolated using the Qiagen RNEasy Plus Mini Kit according to the manufacturer's protocol which can be found on the World Wide Web at qiagen.com/literature/Default. aspx?Term=&Language=EN&LiteratureType=4&ProductCategory=10162.
The RNA was quantified and examined for purity using the 260/280 nm read method in a μ Quant spectrophotometer before use in the array.
Creation and Performance of the Custom Microarray: Through the Custom Array design service of Superarray Bioscience Corporation, a 96 well RT-PCR Microarray was developed to illustrate genetic responses in cells treated as above for specific genes involved in longevity as well as the relevant quality controls. The array was performed in compliance with manufacturer's guidelines and by recommended manufacturer's protocol as can be found on the World Wide Web at superarray.com/Manual/perarrayplate.pdf.
Custom Microarray Results: The results from the microarrays were determined using the delta CT method which uses comparisons of control genes and threshold cycles of genes of interest to generate relative expression values. The full set of experimental conditions was cross referenced and the data is provided herewith in DATA TABLE 4.
Custom Microarray Results: The results from the microarrays were determined using the delta CT method which uses comparisons of control genes and threshold cycles of genes of interest to generate relative expression values. The full set of experimental conditions was cross referenced and the data is provided herewith in DATA TABLE 5. […]

[1] = donor three vs. donor two idebenone + UVB Continuous Incubation
[2] = donor two idebenone + UVB 4 hr Incubation
[3] = donor two idebenone + UVB Continuous Incubation
[4] = donor two idebenone + UVB vs. Green tea + UVB 4 hr Incubation
[5] = donor two idebenone + UVB vs. Green tea + UVB Continuous Incubation

COC1=C(OC)C(=O)C(CCCCCCCCCCO)=C(C)C1=O [Idebenone, 6-(10-hydroxydecyl)-2,3-dimethoxy-5-methyl-1,4-benzoquin-one]
HSPA1A expression fold change [1]: 2.28 | HSPA1B expression fold change [1]: 2.62 | HSPA1L expression fold change [1]: 1.61 | IFI44 expression fold change [1]: −1.43 | IGF1 expression fold change [1]: −1.08 | IGF2 expression fold change [1]: −1.16 | IL1A expression fold change [1]: 2.20 | IL6 expression fold change [1]: 3.97 | IL10 expression fold change [1]: 1.14 | KRAS expression fold change [1]: 1.18 | MAPK14 expression fold change [1]: 1.03 | NADSYN1 expression fold change [1]: 2.28 | NFKB1 expression fold change [1]: 1.56 | NOS2A expression fold change [1]: 1.56 | PARP1 expression fold change [1]: 2.05 | PARP2 expression fold change [1]: −1.48 | PPARG expression fold change [1]: −1.76 | PTGS2 expression fold change [1]: 2.44 | SHC1 expression fold change [1]: 1.67 | SIRT1 expression fold change [1]: −1.04 | SOD1 expression fold change [1]: 2.44 | SOD2 expression fold change [1]: −1.38 | TEP1 expression fold change [1]: 1.31 | TERT expression fold change [1]: 2.13 | TNF expression fold change [1]: 1.40 | TP53 expression fold change [1]: −1.04 | ACE expression fold change [2]: 1.22 | ACTB expression fold change [2]: −1.01 | APOE expression fold change [2]: 1.03 | BAX expression fold change [2]: 1.40 | BCL2 expression fold change [2]: 1.40 | CASP2 expression fold change [2]: −1.53 | CASP9 expression fold change [2]: 1.27 | CCL4L1 expression fold change [2]: 1.06 | CLK1 expression fold change [2]: −1.24 | COX1 expression fold change [2]: 1.14 | CREBBP expression fold change [2]: 1.10 | CYP19A1 expression fold change [2]: 1.40 | DDC expression fold change [2]: 1.45 | GAPDH expression fold change [2]: −1.95 | GH1 expression fold change [2]: −1.04 | HIGX1A fold change [2]: −1.42 | HLA-DRA expression fold change [2]: 1.22 | HPRT1 expression fold change [2]: 1.03 | HSPA1A expression fold change [2]: 1.06 | HSPA1B expression fold change [2]: 1.56 | HSPA1L expression fold change [2]: 1.40 | IFI44 expression fold change [2]: 2.20 | IGF1 expression fold change [2]: −1.47 | IGF2 expression fold change [2]: 1.06 | IL1A expression fold change [2]: −2.16 | IL6 expression fold change [2]: −11.39 | IL10 expression fold change [2]: 1.14 | KRAS expression fold change [2]: 1.73 | MAPK14 expression fold change [2]: 1.27 | NADSYN1 expression fold change [2]: −1.08 | NFKB1 expression fold change [2]: 2.20 | NOS2A expression fold change [2]: 1.61 | PARP1 expression fold change [2]: 1.92 | PARP2 expression fold change [2]: 1.22 | PPARG expression fold change [2]: 1.18 | PTGS2 expression fold change [2]: 1.61 | SHC1 expression fold change [2]: 2.06 | SIRT1 expression fold change [2]: 1.18 | SOD1 expression fold change [2]: −1.08 | SOD2 expression fold change [2]: 1.27 | TEP1 expression fold change [2]: 1.31 | TERT expression fold change [2]: −1.38 | TNF expression fold change [2]: −1.20 | TP53 expression fold change [2]: −1.64 | ACE expression fold change [3]: 1.92 | ACTB expression fold change [3]: 1.31 | APOE expression fold change [3]: 1.18 | BAX expression fold change [3]: −1.04 | BCL2 expression fold change [3]: 3.83 | CASP2 expression fold change [3]: 1.14 | CASP9 expression fold change [3]: 2.13 | CCL4L1 expression fold change [3]: 1.40 | CLK1 expression fold change [3]: 1.85 | COX1 expression fold change [3]: −1.43 | CREBBP expression fold change [3]: 1.18 | CYP19A1 expression fold change [3]: 1.31 | DDC expression fold change [3]: 1.85 | GAPDH expression fold change [3]: −1.38 | GH1 expression fold change [3]: 3.01 | HIGX1A fold change [3]: 1.22 | HLA-DRA expression fold change [3]: 2.44 | HPRT1 expression fold change [3]: 5.23 | HSPA1A expression fold change [3]: 1.50 | HSPA1B expression fold change [3]: 3.70 | HSPA1L expression fold change [3]: −2.48 | IFI44 expression fold change [3]: 1.56 | IGF1 expression fold change [3]: 3.45 | IGF2 expression fold change [3]: −1.12 | IL1A expression fold change [3]: 3.57 | IL6 expression fold change [3]: 3.01 | IL10 expression fold change [3]: 2.05 | KRAS expression fold change [3]: 2.13 | MAPK14 expression fold change [3]: 2.44 | NADSYN1 expression fold change [3]: 1.56 | NFKB1 expression fold change [3]: 3.70 | NOS2A expression fold change [3]: 1.98 | PARP1 expression fold change [3]: 1.67 | PARP2 expression fold change [3]: 2.53 | PPARG expression fold change [3]: 3.22 | PTGS2 expression fold change [3]: 2.71 | SHC1 expression fold change [3]: 1.92 | SIRT1 expression fold change [3]: 1.98 | SOD1 expression fold change [3]: 1.10 | SOD2 expression fold change [3]: 1.03 | TEP1 expression fold change [3]: 1.79 | TERT expression fold change [3]: 8.50 | TNF expression fold change [3]: 1.50 | TP53 expression fold change [3]: 1.67 | ACE expression fold change [4]: 1.32 | ACTB expression fold change [4]: −3.03 | APOE expression fold change [4]: 1.04 | BAX expression fold change [4]: 1.11 | BCL2 expression fold change [4]: 1.19 | CASP2 expression fold change [4]: −1.23 | CASP9 expression fold change [4]: 1.15 | CCL4L1 expression fold change [4]: 10.95 | CLK1 expression fold change [4]: −1.11 | COX1 expression fold change [4]: −1.19 | CREBBP expression fold change [4]: 1.11 | CYP19A1 expression fold change [4]: 11.33 | DDC expression fold change [4]: 14.95 | GAPDH expression fold change [4]: −2.92 | GH1 expression fold change [4]: 8.30 | HIGX1A fold change [4]: 8.30 | HLA-DRA expression fold change [4]: 16.03 | HPRT1 expression fold change [4]: 1.04 | HSPA1A expression fold change [4]: 1.32 | HSPA1B expression fold change [4]: 2.64 | HSPA1L expression fold change [4]: 1.87 | IFI44 expression fold change [4]: 2.15 | IGF1 expression fold change [4]: 4.77 | IGF2 expression fold change [4]: 1.00 | IL1A expression fold change [4]: 1.28 | IL6 expression fold change [4]: −9.83 | IL10 expression fold change [4]: 4.29 | KRAS expression fold change [4]: −1.11 | MAPK14 expression fold change [4]: 1.32 | NADSYN1 expression fold change [4]: −1.19 | NFKB1 expression fold change [4]: −1.03 | NOS2A expression fold change [4]: 17.18 | PARP1 expression fold change [4]: 1.52 | PARP2 expression fold change [4]: 5.87 | PPARG expression fold change [4]: 2.74 | PTGS2 expression fold change [4]: 2.22 | SHC1 expression fold change [4]: 1.11 | SIRT1 expression fold change [4]: 1.63 | SOD1 expression fold change [4]: 1.52 | SOD2 expression fold change [4]: −1.32 | TEP1 expression fold change [4]: 2.55 | TERT expression fold change [4]: 3.37 | TNF expression fold change [4]: 6.98 | TP53 expression fold change [4]: −1.51 | ACE gene expression fold change [5]: 1.33 | ACTB gene expression fold change [5]: −1.67 | APOE gene expression fold change [5]: 1.16 | BAX gene expression fold change [5]: −1.45 | BCL2 gene expression fold change [5]: −1.10 | CASP2 gene expression fold change [5]: −1.79 | CASP9 gene expression fold change [5]: 1.58 | CCL4L1 gene expression fold change [5]: 4.97 | CLK1 gene expression fold change [5]: 1.01 | COX1 gene expression fold change [5]: −2.53 | CREBBP gene expression fold change [5]: −1.10 | CYP19A1 gene expression fold change [5]: 8.07 | DDC gene expression fold change [5]: 24.46 | GAPDH gene expression fold change [5]: −1.10 | GH1 gene expression fold change [5]: 25.33 | HIGX1A gene expression fold change [5]: 6.12 | HLA-DRA gene expression fold change [5]: 58.18 | HPRT1 gene expression fold change [5]: 2.40 | HSPA1A gene expression fold change [5]: 1.12 | HSPA1B gene expression fold change [5]: 1.16 | HSPA1L gene expression fold change [5]: −1.61 | IFI44 gene expression fold change [5]: 1.29 | IGF1 gene expression fold change [5]: 6.12 | IGF2 gene expression fold change [5]: −1.14 | IL1A gene expression fold change [5]: 10.65 | IL6 gene expression fold change [5]: 1.04 | IL10 gene expression fold change [5]: 4.32 | KRAS gene expression fold change [5]: 1.53 | MAPK14 gene expression fold change [5]: 1.64 | NADSYN1 gene expression fold change [5]: 1.12 | NFKB1 gene expression fold change [5]: 2.24 | NOS2A gene expression fold change [5]: 15.06 | PARP1 gene expression fold change [5]: −1.98 | PARP2 gene expression fold change [5]: 4.48 | PPARG gene expression fold change [5]: 2.16 | PTGS2 gene expression fold change [5]: −1.06 | SHC1 gene expression fold change [5]: 1.48 | SIRT1 gene expression fold change [5]: 1.88 | SOD1 gene expression fold change [5]: −1.56 | SOD2 gene expression fold change [5]: 1.33 | TEP1 gene expression fold change [5]: 1.12 | TERT gene expression fold change [5]: 7.53 | TNF gene expression fold change [5]: 10.29 | TP53 gene expression fold change [5]: 1.88 | RTC gene expression fold change (donor two idebenone + UVB vs. Green tea + UVB Continuous Incubation, entry r283): 1.08 | PPC gene expression fold change (donor two idebenone + UVB vs. Green tea + UVB Continuous Incubation, entry r289): −1.67 | RTC gene expression fold change (donor two idebenone + UVB vs. Green tea + UVB Continuous Incubation, entry r293): 2.09 | PPC gene expression fold change (donor two idebenone + UVB vs. Green tea + UVB Continuous Incubation, entry r295): −1.35

— US20140079836A1, “METHODS AND COMPOSITIONS FOR ALTERING HEALTH, WELLBEING, AND LIFESPAN” (LifeSpan Extension, LLC, priority 2008, published 2014)
